What was measured:
[1] = system: C. glabrata ATCC 2001 (strain H); assay: MIC and checkerboard assay, azoles + antihistamines; format: cell-based, Candida glabrata; details: in combination with POS
Method: Determination of minimum inhibitory concentration (MIC) values. MIC values were recorded for all antifungals and antihistamines in order to determine the concentration range of compounds to be used in the checkerboard assays.
The MIC assays were done using the broth microdilution method as described in CLSI document M27-A3 with minor modifications. Yeast cultures were started by picking a colony from a PDA plate stored at 4° C. The colonies were grown in YEPD medium overnight at 35° C. with shaking at 200 rpm. In a 96-well plate compounds were diluted lengthwise along the plate in serial 2-fold dilutions in the RPMI 1640 medium. The yeast cultures were diluted in RPMI 1640 medium to an OD600 within the range of 0.12 and 0.15 (˜1×10^6 cells/mL). The fungal cells were further diluted by taking 25 μL of fungal cells and adding them to 10 mL of RPMI 1640 medium before adding 100 μL to plate (200 μL total volume). The plates were incubated at 35° C. for 48 h. Visual inspection of the wells for no growth was used to determine the MIC. All compounds were tested in duplicate (TABLES 6 and 7).
Checkerboard assays were done as previously described to determine the fractional inhibitory concentration index (FICI). 2-fold dilutions of the azole drug were made in RPMI 1640 medium lengthwise along the plate. For the antihistamine, 2-fold serial dilutions were made in sterile tubes with RPMI 1640 medium, then aliquoted into the plate. […] The maximal amount was used in the checkerboard assays if complete inhibition was not observed in the MIC assays. Cultures were started by picking a colony from a plate and growing in YEPD medium overnight at 35° C. with shaking at 200 rpm. Cultures were diluted in RPMI 1640 medium to an OD600 between 0.12 and 0.15 (˜1×10^6 cells/mL). Cells were then further diluted by taking 25 μL of cell suspension and adding to 10 mL of RPMI 1640 medium. After the drugs were added to the plate with 100 μL of medium, 100 μL of fungal cells were added. Plates were incubated at 35° C. for 48 h and visual inspection was used to determine wells with no growth. All experiments were carried out in duplicate. The FICI was calculated based on the formula below. The combinational effect of the 2 tested compounds were considered synergistic (SYN) if FICI≤0.5, additive (ADD) if 0.5<FICI≤4, and antagonistic if FICI>4 (TABLES 6-9).

[2] = system: C. albicans ATCC 10231 (strain B); assay: Time-kill assay, POS and EBA; format: cell-based, Candida albicans; details: POS + EBA combination at 1×MIC
Method: (§1) The protocol for time-kill assays followed methods previously described with minor modifications. Yeast cultures were grown overnight in YEPD medium at 35° C. with shaking at 200 rpm. A working stock of fungal cells was made by diluting cultures in 1640 medium to an OD600 of 0.125 (˜1×10^6 CFU/mL). From the working stock, 100 μL of cells was added to 4.9 mL of RPMI 1640 medium in sterile culture tubes, making the starting fungal cell concentration ˜1×10^5 CFU/mL. Drug was then added to the fungal cells. […] Treated fungal cultures were incubated in the culture tubes at 35° C. with 200 rpm shaking for 24 h. Samples were aliquoted from the different treatments at regular time points (0, 3, 6, 9, 12, and 24 h) and plated in duplicate. For each time point, cultures were vortexed, 100 μL of culture was aspirated, and 10-fold serial dilutions were made in sterile ddH2O. From the appropriate dilutions, 100 μL of fungal suspension was spread on PDA plates and incubated at 35° C. for 48 h before colony counts were determined. At 24 h, 50 μL of 1 mM resazurin in phosphate buffered saline (PBS) was added to the treatments and incubated at 35° C. with 200 rpm shaking for 2 h in the dark for visual inspection. […] Experiments were performed in duplicate.

[3] = system: C. glabrata ATCC 2001 (strain H); assay: Time-kill assay, POS and EBA; format: cell-based, Candida glabrata; details: POS + EBA combination at 1×MIC
Method: as §1

A549 cells = assay: Mammalian cytotoxicity (resazurin cell viability), POS and EBA; format: cell-based, human; details: EBA alone at 25 μg/mL
Method: (§2) To examine whether the inhibitory effect of the antifungal and antihistamine combinations is specific to fungal cells, the combinations were tested with 4 mammalian cell lines: A459, BEAS-2B, HEK-293, and HaCaT. […] The assays were done in 96-well plates. A549 and BEAS-2B cells were plated at a density of 3×10^3 cells/mL, HaCaT were plated at 2×10^4 cells/mL, and HEK-293 cells were plated at 1×10^4 cells/mL as determined by using a hemacytometer. […] All assays were done in quadruplicate.

BEAS-2B cells = assay: as above; format: cell-based, human; details: EBA alone at 25 μg/mL
Method: as §2

HEK-293 cells = assay: as above; format: cell-based, human; details: EBA alone at 25 μg/mL
Method: as §2

HaCaT cells = assay: as above; format: cell-based, human; details: EBA alone at 25 μg/mL
Method: as §2

[4] = aqueous assay medium, from DMSO stock

SMILES	FICI [1]	CFU/mL through 24 h [2]	CFU/mL through 24 h [3]	cell survival (A549 cells)	cell survival (BEAS-2B cells)	cell survival (HEK-293 cells)	cell survival (HaCaT cells)	maximal concentration where no precipitation was observed [4]
CC(C)(C)c1ccc(C(=O)CCCN2CCC(OC(c3ccccc3)c3ccccc3)CC2)cc1 [EBA, ebastine]	0.05	10^6 CFU/mL	10^6 CFU/mL	~0%	~0%	~0%	~0%	
CC(C)(C)c1ccc(C(O)CCCN2CCC(C(O)(c3ccccc3)c3ccccc3)CC2)cc1 (centres unmarked) [TERF, terfenadine]								42.7 µg/mL
